Entries after “also recorded” stand apart in the source; their conditions may differ.
Columns and labels:
[1] = system: Arabidopsis wildtype plants; assay: Growth (root length) of Arabidopsis wildtype plants on media with low-dose herbicides, alone and combined; type: in vivo
Experimental: Because Cellulosin has different target as isoxaben, indaziflam and C17. Since the need to avoid the development of herbicide-resistant weeds that is caused by repetitive application of the same herbicide is utmost, we decided to test whether application of Cellulosin together with isoxaben, indaziflam and C17 would make it possible to control the weeds more efficiently with reduced dosage of two herbicides.
Statistically significant differences in right panels were determined by one-way ANOVA test followed by Tukey's multiple comparisons test. Different letters of root length of seedlings indicate significant difference between groups (p<0.05). N=12.
[…] Bar, 1 cm.
Because Cellulosin and isoxaben target CesA at different sites, it allowed us to hypothesize that application of both herbicides at the same time will make it possible to control the weeds with reduced dosage of both herbicides. This should also avoid the development of herbicide-resistant weeds that is caused by repetitive application of the same herbicide. We tested the growth of Arabidopsis at lower dosage of both Cellulosin and isoxaben.

[2] = system: Cellulosin resistant mutants (cesa6); assay: Growth (root length) of Cellulosin resistant cesa6 mutants on supplemented media; type: in vivo, Arabidopsis; conditions: media supplemented with the compound, compared with DMSO control
Source text: (§1) Recently, we discovered a new cellulose synthase inhibitor Cellulosin and a group of cesa6 mutants that carry mis-sense mutations at the central cytoplasmic region that contains the catalytic motif and are resistant to Cellulosin. In order to test whether Cellulosin has the same mode of action as isoxaben, indaziflam and C17, we first tested the growth of isoxaben resistant mutants on media supplemented with Cellulosin. […] We next tested the growth of our Cellulosin resistant mutants on isoxaben, indaziflam and C17.
FIGS. 2E-2G depict quantifications of root length of Cellulosin resistant mutants on media supplemented with isoxaben (FIG. 2E), indaziflam (FIG. 2F), and C17 (FIG. 2G) in comparison with DMSO control, Statistically significant differences in right panels were determined by one-way ANOVA test followed by Tukey's multiple comparisons test. Different letters of root length of seedlings indicate significant difference between groups (p<0.05). Bars: 1 cm.

[3] = system: plants expressing CesA6 carrying mis-sense mutations at the catalytic site; assay: Growth of transgenic plants expressing CesA6 with mis-sense mutations at the hypothesized Cellulosin binding sites; type: in vivo, Arabidopsis; conditions: cesa6 loss-of-function mutant background; compared with DMSO control
Source text: as §1

[4] = system: Arabidopsis mutants ixr1-1, ixr1-2 and ixr2-1; assay: Growth (root length) of isoxaben resistant mutants ixr1-1, ixr1-2, ixr2-1 on supplemented media; type: in vivo; conditions: media supplemented with the compound
Source text: as §1
Wildtype (WT) Arabidopsis and its mutants ixr1-1, ixr1-2, and ixr2-1 are grown on media supplemented with DMSO (FIGS. 1A-1B), isoxaben (FIGS. 1C-1D) or Cellulosin (FIGS. 1E-1F) and their quantifications on their root length. Arabidopsis mutants ixr1-1, ixr1-2 and ixr2-1 have longer roots in compare with wildtype (Col) on media supplemented with isoxaben. […] Bars: 1 cm

Structure (SMILES)	plant growth inhibition ([1]; 0.06 nM indaziflam alone in growth media)	plant growth inhibition ([1]; 0.25 nM indaziflam alone in growth media)	sensitivity of Cellulosin resistant mutants in growth (root length) [2]	resistance / sensitivity in growth of plants expressing mutated CesA6 [3]	plant growth inhibition ([1]; 3.5 nM isoxaben alone, nine days old plants)	plant growth inhibition ([1]; 4 nM isoxaben alone in growth media)	growth / root length of isoxaben resistant mutants compared with wildtype (Col) [4]
Cc1ccc2c(c1)[C@H](Nc1nc(N)nc(C(C)F)n1)[C@@H](C)C2 (stereo partly drawn) [indaziflam]	did not inhibit plant growth; also recorded: does not significantly inhibit plant growth	not inhibited	Most of our mutants that are resistant to Cellulosin are sensitive; also recorded: only a few of our mutants show reduced sensitivity	do not show resistance; also recorded: they have the same sensitivity			
CCC(C)(CC)c1cc(NC(=O)c2c(OC)cccc2OC)on1 [isoxaben, N-3[1-ethyl-1-methylpropyl]-5-isoxazolyl-2,6, or dimethoxybenzamide]			Most of our mutants that are resistant to Cellulosin are sensitive; also recorded: only a few of our mutants show reduced sensitivity	do not show resistance; also recorded: they have the same sensitivity	Neither 300 nM Cellulosin nor 3.5 nM isoxaben significantly inhibits plant growth; also recorded: does not significantly inhibit plant growth	not inhibited; also recorded: did not inhibit plant growth; also recorded: does not significantly inhibit plant growth	longer roots

From patent publication US20240065270A1 (priority 2018, published 2024)
